According to patent publication US11040981B2, “Pyrrolotriazine compounds and methods of inhibiting TAM kinases” (Syros Pharmaceuticals, Inc., priority 2017, dated 2021):
Counter-ions that a name gives are not always drawn.

Assays:
[1] = molecular target: T1, MERTK (Homo sapiens, UniProt Q12866); assay: TR-FRET kinase activity assay, MERTK; assay type: biochemical; details: for IC50: TR-FRET activity assay, ATP at Km, 60 minutes, read-out: Mer IC50; for FLT3/Mer ratio (FLT3 IC50/Mer IC50): ratio of Mer to FLT3: FLT3 IC50/Mer IC50
T1 sequence (Q12866 21-999): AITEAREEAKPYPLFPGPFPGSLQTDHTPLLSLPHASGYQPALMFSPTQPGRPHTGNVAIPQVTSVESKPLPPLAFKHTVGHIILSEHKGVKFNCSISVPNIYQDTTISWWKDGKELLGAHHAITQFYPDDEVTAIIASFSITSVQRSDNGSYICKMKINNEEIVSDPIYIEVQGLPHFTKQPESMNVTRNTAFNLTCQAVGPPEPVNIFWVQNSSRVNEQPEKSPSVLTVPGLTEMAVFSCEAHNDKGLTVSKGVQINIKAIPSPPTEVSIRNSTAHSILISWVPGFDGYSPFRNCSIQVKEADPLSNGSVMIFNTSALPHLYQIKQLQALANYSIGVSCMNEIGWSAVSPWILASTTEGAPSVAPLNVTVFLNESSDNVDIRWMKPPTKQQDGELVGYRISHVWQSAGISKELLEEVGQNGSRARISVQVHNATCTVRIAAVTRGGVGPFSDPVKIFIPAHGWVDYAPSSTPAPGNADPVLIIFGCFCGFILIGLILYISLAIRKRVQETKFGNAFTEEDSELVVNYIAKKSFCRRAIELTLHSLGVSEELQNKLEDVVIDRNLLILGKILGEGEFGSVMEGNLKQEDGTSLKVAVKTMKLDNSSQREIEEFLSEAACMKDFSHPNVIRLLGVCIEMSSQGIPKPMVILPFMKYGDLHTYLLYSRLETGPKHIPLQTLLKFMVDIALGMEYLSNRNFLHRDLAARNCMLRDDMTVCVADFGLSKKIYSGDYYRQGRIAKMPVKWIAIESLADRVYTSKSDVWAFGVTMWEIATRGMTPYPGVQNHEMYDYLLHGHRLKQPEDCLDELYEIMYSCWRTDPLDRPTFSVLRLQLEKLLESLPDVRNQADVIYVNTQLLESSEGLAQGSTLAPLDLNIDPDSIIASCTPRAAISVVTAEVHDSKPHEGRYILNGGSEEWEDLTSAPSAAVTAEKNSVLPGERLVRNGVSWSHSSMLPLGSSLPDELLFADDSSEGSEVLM
Summary of the method: (§1)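 Inhibition is measured as loss of phospho-peptide formation: kinase, fluorescent tyrosine peptide and compound are combined, ATP is added at Km, and the reaction proceeds 60 min at RT in pH 7.5 HEPES buffer. An EDTA stop and Eu-labelled phospho-specific antibody allow TR-FRET detection for IC50 fitting.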

[2] = molecular target: T2, TYRO3 (Homo sapiens, UniProt Q06418); assay: TR-FRET kinase activity assay, TYRO3; assay type: biochemical; details: ATP at Km, 60 minutes
T2 sequence (Q06418 41-890): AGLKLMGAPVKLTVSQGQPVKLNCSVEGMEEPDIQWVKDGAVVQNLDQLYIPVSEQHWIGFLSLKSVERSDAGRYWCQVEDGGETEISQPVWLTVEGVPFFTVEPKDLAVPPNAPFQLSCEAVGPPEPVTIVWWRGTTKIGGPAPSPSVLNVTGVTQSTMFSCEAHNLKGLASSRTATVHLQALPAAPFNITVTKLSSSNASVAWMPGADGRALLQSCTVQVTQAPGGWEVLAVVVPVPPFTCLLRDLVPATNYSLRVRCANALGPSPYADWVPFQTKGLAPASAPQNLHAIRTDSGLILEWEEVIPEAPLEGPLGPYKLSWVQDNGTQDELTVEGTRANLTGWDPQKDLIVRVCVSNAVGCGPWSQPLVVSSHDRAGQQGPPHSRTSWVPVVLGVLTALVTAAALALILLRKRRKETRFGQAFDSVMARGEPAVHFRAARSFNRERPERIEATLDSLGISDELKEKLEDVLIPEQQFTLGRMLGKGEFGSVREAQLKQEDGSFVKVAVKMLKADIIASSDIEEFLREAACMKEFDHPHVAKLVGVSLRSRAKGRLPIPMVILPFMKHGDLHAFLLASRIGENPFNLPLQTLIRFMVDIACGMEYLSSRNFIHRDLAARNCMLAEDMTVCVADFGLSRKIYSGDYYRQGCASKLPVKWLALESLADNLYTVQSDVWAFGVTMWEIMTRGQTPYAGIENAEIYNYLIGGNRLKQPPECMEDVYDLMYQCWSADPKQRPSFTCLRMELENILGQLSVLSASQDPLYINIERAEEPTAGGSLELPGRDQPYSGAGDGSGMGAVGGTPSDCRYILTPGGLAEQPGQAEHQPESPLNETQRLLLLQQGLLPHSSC
Summary of the method: as §1

SMILES	IC50 [1]	FLT3/Mer ratio (FLT3 IC50/Mer IC50) [1]	IC50 [2]
COC[C@H](C)Nc1ncc2c(-c3cnn(CC4CNC(=O)C4)c3)cc([C@H]3CC[C@H](O)CC3)n2n1 (stereo partly drawn) [Compound 303]	≤ 100 nM	+++ (“+++” represents a ratio of >100)	≤ 100 nM
CCCCC[C@H](C)Nc1ncc2c(C3CCNCC3)cc([C@H]3CC[C@H](O)CC3)n2n1 [Compound 116, (1S,4r)-4-(2-((S)-heptan-2-ylamino)-5-(piperidin-4-yl)pyrrolo[2,1-f][1,2,4]triazin-7-yl)cyclohexanol hydrochloride]	≤ 100 nM	+++ (“+++” represents a ratio of >100)	≤ 100 nM
Cc1nnc(Cn2cc(-c3cc([C@H]4CC[C@H](O)CC4)n4nc(N[C@@H](C)CC(F)(F)F)ncc34)cn2)o1 [Compound 296]	≤ 100 nM	++ (“++” represents a ratio of between 10 and 100)	≤ 100 nM
COC[C@H](C)Nc1ncc2c(-c3cnn(C(C)(C)C(=O)N4CCC5(COC5)C4)c3)cc([C@H]3CC[C@H](O)CC3)n2n1 [Compound 318]	≤ 100 nM	+++ (“+++” represents a ratio of >100)	≤ 100 nM
COC[C@H](C)Nc1ncc2c(-c3cnn([C@@H]4CCNC4=O)c3)cc([C@H]3CC[C@H](O)CC3)n2n1 [Compound 315]	≤ 100 nM	+++ (“+++” represents a ratio of >100)	≤ 100 nM
COC[C@H](C)Nc1ncc2c(-c3cnn(C(C)(C)C(=O)N4CCOCC4)c3)cc([C@H]3CC[C@H](O)CC3)n2n1 [Compound 282]	≤ 100 nM	+++ (“+++” represents a ratio of >100)	≤ 100 nM
COC[C@H](C)Nc1ncc2c(-c3cnn(Cc4cncc(C)n4)c3)cc([C@H]3CC[C@H](O)CC3)n2n1 [Compound 329]	≤ 100 nM	+++ (“+++” represents a ratio of >100)	≤ 100 nM
CCCCC[C@H](C)Nc1ncc2c(N3CCNCC3)cc([C@H]3CC[C@H](O)CC3)n2n1 [Compound 114]	≤ 100 nM	+++ (“+++” represents a ratio of >100)	≤ 100 nM
COC[C@H](C)Nc1ncc2c(-c3ccnc(N4CCN(C(C)=O)CC4)c3)cc([C@H]3CC[C@H](O)CC3)n2n1 [Compound 344]	≤ 100 nM	+++ (“+++” represents a ratio of >100)	≤ 100 nM
CNC(=NC#N)N[C@H]1CC[C@H](c2cc(-c3ccc(CN4CCOCC4)cc3)c3cnc(N[C@@H](C)COC)nn32)CC1 [Compound 307]	≤ 100 nM	+++ (“+++” represents a ratio of >100)	≤ 100 nM
CNS(=O)(=O)c1cncc(-c2cc([C@H]3CC[C@H](O)CC3)n3nc(N[C@@H](C)CC(F)(F)F)ncc23)c1 [Compound 278]	≤ 100 nM	+++ (“+++” represents a ratio of >100)	≤ 100 nM
C[C@@H](CC(F)(F)F)Nc1ncc2c(-c3cn[nH]c3)cc([C@H]3CC[C@H](O)CC3)n2n1 [Compound 276]	≤ 100 nM	+++ (“+++” represents a ratio of >100)	≤ 100 nM
CNC(=O)c1ccc(-c2cc([C@H]3CC[C@H](O)CC3)n3nc(N[C@@H](C)COC)ncc23)cn1 [Compound 317]	≤ 100 nM	+++ (“+++” represents a ratio of >100)	≤ 100 nM
COC[C@H](C)Nc1ncc2c(-c3cc(C)nc(C)c3)cc([C@H]3CC[C@H](O)CC3)n2n1 [Compound 308]	≤ 100 nM	+++ (“+++” represents a ratio of >100)	≤ 100 nM
CNS(=O)(=O)c1cncc(-c2cc([C@H]3CC[C@H](O)CC3)n3nc(N[C@@H](C)COC)ncc23)c1 [Compound 272]	≤ 100 nM	+++ (“+++” represents a ratio of >100)	≤ 100 nM
CNS(=O)(=O)c1cncc(-c2cc([C@H]3CC[C@H](O)CC3)n3nc(N[C@@H](C)COC(F)F)ncc23)c1 [Compound 275]	≤ 100 nM	+++ (“+++” represents a ratio of >100)	≤ 100 nM
COC[C@H](C)Nc1ncc2c(-c3cnn(C4CC(C(=O)OC)C4)c3)cc([C@H]3CC[C@H](O)CC3)n2n1 (stereo partly drawn) [Compound 330]	≤ 100 nM	+++ (“+++” represents a ratio of >100)	≤ 100 nM
COC[C@H](C)Nc1ncc2c(-c3ccc(CN4CCOCC4)cc3)cc([C@H]3CC[C@H](NS(C)(=O)=O)CC3)n2n1 [Compound 301]	≤ 100 nM	+++ (“+++” represents a ratio of >100)	≤ 100 nM
COC[C@H](C)Nc1ncc2c(-c3ccnc(N4CCCC4)c3)cc([C@H]3CC[C@H](O)CC3)n2n1 [Compound 339]	≤ 100 nM	+++ (“+++” represents a ratio of >100)	≤ 100 nM
COC[C@H](C)Nc1ncc2c(-c3cnn(C4CN(C(=O)C5(C(F)(F)F)CC5)C4)c3)cc([C@H]3CC[C@H](O)CC3)n2n1 [Compound 294]	≤ 100 nM	+++ (“+++” represents a ratio of >100)	≤ 100 nM
COC[C@H](C)Nc1ncc2c(-c3cnn(C(C)(C)C(=O)N4C[C@@H](C)O[C@@H](C)C4)c3)cc([C@H]3CC[C@H](O)CC3)n2n1 [Compound 320]	≤ 100 nM	+++ (“+++” represents a ratio of >100)	≤ 100 nM
CNS(=O)(=O)c1ccc(-c2cc([C@H]3CC[C@H](O)CC3)n3nc(N[C@@H](C)COC)ncc23)cn1 [Compound 336]	≤ 100 nM	+++ (“+++” represents a ratio of >100)	≤ 100 nM
COC[C@H](C)Nc1ncc2c(-c3ccnc(OC(C)C)c3)cc([C@H]3CC[C@H](O)CC3)n2n1 [Compound 343]	≤ 100 nM	+++ (“+++” represents a ratio of >100)	≤ 100 nM
C[C@@H](CC(F)(F)F)Nc1ncc2c(-c3cnn([C@@H]4CCOC4)c3)cc([C@H]3CC[C@H](O)CC3)n2n1 [Compound 289]	≤ 100 nM	+ (“+” represents a ratio of >2.0 and <10)	≤ 100 nM
COCC(C)Nc1ncc2c(-c3cnn(Cc4ccc(=O)n(C)c4)c3)cc(C3CCC(O)CC3)n2n1 (stereo not drawn) [Compound 322]	≤ 100 nM	+++ (“+++” represents a ratio of >100)	≤ 100 nM
COC[C@H](C)Nc1ncc2c(-c3cnn(CCS(C)(=O)=O)c3)cc([C@H]3CC[C@H](O)CC3)n2n1 [Compound 280]	≤ 100 nM	+++ (“+++” represents a ratio of >100)	≤ 100 nM
COC[C@H](C)Nc1ncc2c(-c3cnn(C4CCS(=O)(=O)CC4)c3)cc([C@H]3CC[C@H](O)CC3)n2n1 [Compound 323]	≤ 100 nM	+++ (“+++” represents a ratio of >100)	≤ 100 nM
